In assay [1] the target is T1, human Cot catalytic domain (30-397 amino acids) (Homo sapiens, UniProt P41279).
T1 construct: Purified recombinant human Cot catalytic domain (30-397 amino acids) was purchased from Cama Biosciences; purchased Cama Biosciences (so in the source)
Nature of the assay: High Throughput Cot Biochemical Assay (KinEASE TR-FRET). Conditions: read-out: IC50 HTRF. In a few lines: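 First, purified human Cot (aa 30-397) at 5 nM phosphorylates an XL665-labeled STK3 peptide (1 μM) at 400 μM ATP, pH 7.0, 0.1% DMSO. Then a europium-conjugated phospho-specific antibody binds the product, giving the TR-FRET signal.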

Assay [2] relates to TNFα production in LPS-stimulated human monocytes. In words: Cot Monocyte TNFα Cell Based Assay. Conditions: Homo sapiens, Monocyte, read-out: EC50 TNF. In a few lines: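 5,000 cells/well; cmpd 1 h, 37 °C, 0.5% DMSO final; LPS 50 pg/ml, 4 h, 37 °C; media TNFα by HTRF sandwich (cryptate/XL665), RT overnight; % control vs unstimulated/stimulated wells.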
[3] abbreviates: Cot KinEASE TR-FRET (HTRF) biochemical assay, 400 μM ATP.
The mark [4] stands for this setting: TNFα in LPS-stimulated human monocytes.
The mark [5] stands for this setting: Cot biochemical HTRF (KinEASE TR-FRET) assay.
The mark [6] stands for this setting: Cot KinEASE TR-FRET, 400 μM ATP.
Where [7] appears, read: LPS-stimulated human monocytes, TNFα TR-FRET.

This is an account of results in patent US10316017B2, “COT modulators and methods of use thereof” (Gilead Sciences, Inc., priority 2015, dated 2019).

Read-outs that look alike come from different tables or passages of the source.

T1 sequence (P41279 30-397): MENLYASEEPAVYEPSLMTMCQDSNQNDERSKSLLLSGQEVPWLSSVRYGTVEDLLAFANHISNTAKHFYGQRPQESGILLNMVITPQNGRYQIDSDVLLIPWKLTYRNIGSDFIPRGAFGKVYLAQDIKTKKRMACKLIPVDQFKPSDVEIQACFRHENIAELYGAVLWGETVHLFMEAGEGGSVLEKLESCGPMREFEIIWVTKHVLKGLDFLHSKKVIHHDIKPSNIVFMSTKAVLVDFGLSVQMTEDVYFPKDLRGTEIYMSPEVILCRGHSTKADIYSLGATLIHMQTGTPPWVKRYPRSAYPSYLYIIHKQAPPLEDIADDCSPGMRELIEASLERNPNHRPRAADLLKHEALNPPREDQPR

In the case of `[2H][C@](Nc1cc(C#N)c2ncc(C#N)c(Nc3cnc(F)c(F)c3)c2c1)(c1ccc(F)cc1)c1cn(C2CC2)nn1` [Example 351, (S)-6-(((1-cyclopropyl-1H-1,2,3-triazol-4-yl)(4-fluorophenyl)methyl-d)amino)-4-((5,6-difluoropyridin-3-yl)amino)quinoline-3,8-dicarbonitrile], in assay [1] (setting [3]), the IC50 (as a rule, the concentration at which inhibition is half-maximal) turned out to be 6 nM. In addition, the EC50 (commonly the concentration at which the effect is half-maximal) in assay [2] (setting [4]) came out at 206 nM.

`COC[C@@H](C)Nc1c(C#N)cnc2c(Cl)cc(N[C@@H](c3ccccc3)c3cn(C4CCN(C(C)(C)C)CC4)nn3)cc12` [Example 556, 6-(((S)-(1-(1-(tert-butyl)piperidin-4-yl)-1H-1,2,3-triazol-4-yl)(phenyl)methyl)amino)-8-chloro-4-(((R)-1-methoxypropan-2-yl)amino) quinoline-3-carbonitrile]: the 50% inhibitory concentration (IC50) in assay [1] (setting [5]) was 725 nM. Further, the EC50 in assay [2] (setting [4]) was > 10000 nM.

In the case of `CCN1CCC(n2cc(C(Nc3cc(Cl)c4ncc(C#N)c(Nc5ccc(F)c(Cl)c5)c4c3)c3cc(F)c(F)c(F)c3)nn2)CC1` (centres unmarked) [Example 889, 8-chloro-4-((3-chloro-4-fluorophenyl)amino)-6-(((1-(1-ethylpiperidin-4-yl)-1H-1,2,3-triazol-4-yl)(3,4,5-trifluorophenyl)methyl)amino) quinoline-3-carbonitrile], the IC50 in assay [1] (setting [5]) amounted to 32 nM. For the same compound, the EC50 in assay [2] (setting [4]) is 362 nM.

Consider `[2H][C@](Nc1cc(Cl)c2ncc(C#N)c(N[C@H]3CCC[C@@H](O)C3)c2c1)(c1ccc(F)cc1)c1cn(C2CC2)nn1` [Example 315, 8-chloro-6-(((S)-(1-cyclopropyl-1H-1,2,3-triazol-4-yl)(4-fluorophenyl)methyl-d)amino)-4-(((1S,3R)-3-hydroxycyclohexyl)amino) quinoline-3-carbonitrile], for which, in assay [1] (setting [3]), the IC50 is 134 nM. Besides, in assay [2] (setting [4]), the EC50 amounted to 1010 nM.

As to `CC(C)(C)CNc1c(C#N)cnc2c(C#N)cc(N[C@@H](c3cccc(C(N)=O)c3)c3cn(C4CC4)nn3)cc12` [Compound 59], the IC50 in assay [1] (setting [3]) was found to be 1 nM. Further, the EC50 in assay [2] (setting [4]) was found to be 612 nM.

Turning to `N#Cc1cnc2c(Cl)cc(N[C@@H](c3ccc(F)cc3)c3cn(C4CCN(CC(F)(F)F)CC4)nn3)cc2c1Nc1ccc(F)c(Cl)c1` [Example 828, (S)-8-chloro-4-((3-chloro-4-fluorophenyl)amino)-6-(((4-fluorophenyl)(1-(1-(2,2,2-trifluoroethyl)piperidin-4-yl)-1H-1,2,3-triazol-4-yl)methyl)amino)quinoline-3-carbonitrile], the concentration for half-maximal inhibition (IC50) in assay [1] (setting [5]) worked out at 297 nM. Further, the EC50 in assay [2] (setting [4]) turned out to be 1150 nM.

On to `[2H][C@](Nc1cc(C2CC2)c2ncc(C#N)c(N[C@H](CC)c3ccccc3)c2c1)(c1ccc(F)cc1)c1cn(C2CC2)nn1` [Example 224, 8-cyclopropyl-6-(((S)-(1-cyclopropyl-1H-1,2,3-triazol-4-yl)(4-fluorophenyl)methyl-d)amino)-4-(((R)-1-phenylpropyl)amino)quinoline-3-carbonitrile], for which the IC50 in assay [1] (setting [3]) was found to be 28 nM. Moreover, in assay [2] (setting [4]), the EC50 worked out at 397 nM.

In the case of `CC(C)(C)N1CCC(n2cc([C@@H](Nc3cc(Cl)c4ncc(C#N)c(Nc5cccc(Cl)c5F)c4c3)c3ccc(Cl)cc3)nn2)CC1` [Example 739, (S)-6-(((1-(1-(tert-butyl)piperidin-4-yl)-1H-1,2,3-triazol-4-yl)(4-chlorophenyl)methyl)amino)-8-chloro-4-((3-chloro-2-fluorophenyl)amino)quinoline-3-carbonitrile], the IC50 in assay [1] (setting [5]) is 22 nM. For the same compound, the EC50 in assay [2] (setting [4]) worked out at 1100 nM.

Turning to `N#Cc1cnc2c(Cl)cc(N[C@@H](c3ccccc3)c3cn(CCO)nn3)cc2c1Nc1ccc(F)c(Cl)c1` [Example 738, (S)-8-chloro-4-((3-chloro-4-fluorophenyl)amino)-6-(((1-(2-hydroxyethyl)-1H-1,2,3-triazol-4-yl)(phenyl)methyl)amino)quinoline-3-carbonitrile], the IC50 in assay [1] (setting [5]) amounted to 7 nM. Besides, the half-maximal effective concentration (EC50) in assay [2] (setting [4]) turned out to be 274 nM.

Turning to `[2H]C(Nc1cc(Cl)c2ncc(C#N)c(NCC(C)(C)C)c2c1)(c1cn(C2(C)CC2)nn1)c1ccccc1Cl` (centres unmarked) [Example 107, 8-chloro-6-(((2-chlorophenyl)(1-(1-methylcyclopropyl)-1H-1,2,3-triazol-4-yl)methyl-d)amino)-4-(neopentylamino) quinoline-3-carbonitrile], the IC50 in assay [1] (setting [3]) is 14 nM. Further, the EC50 in assay [2] (setting [4]) came out at 272 nM.

As to `CC(C)(C)CNc1c(C#N)cnc2c(C#N)cc(N[C@@H](c3ccccc3)c3cn(C4(C(F)F)CC4)nn3)cc12` [Example 1064, (S)-6-(((1-(1-(difluoromethyl)cyclopropyl)-1H-1,2,3-triazol-4-yl)(phenyl)methyl)amino)-4-(neopentylamino)quinoline-3,8-dicarbonitrile], the IC50 in assay [1] (setting [6]) was determined as 12 nM. For the same compound, the EC50 in assay [2] (setting [7]) amounted to 103 nM.

In the case of `N#Cc1cnc2c(Cl)cc(N[C@@H](c3ccccc3)c3cn(CCN)nn3)cc2c1Nc1ccc(F)c(Cl)c1` [Example 796, (S)-6-(((1-(2-aminoethyl)-1H-1,2,3-triazol-4-yl)(phenyl)methyl)amino)-8-chloro-4-((3-chloro-4-fluorophenyl)amino)quinoline-3-carbonitrile], the IC50 in assay [1] (setting [5]) was 2 nM. For the same compound, in assay [2] (setting [4]), the EC50 was 200 nM.

With `CC(C)(C)CNc1c(C#N)cnc2c(C#N)cc(N[C@@H](c3cccc(C4(C#N)CC4)c3)c3cn(C4(C(F)(F)F)CC4)nn3)cc12` [Example 1128, (S)-6-(((3-(1-cyanocyclopropyl)phenyl)(1-(1-(trifluoromethyl)cyclopropyl)-1H-1,2,3-triazol-4-yl)methy;)amino)-4-(neopentylamino)quinoline-3,8-dicarbonitrile], the IC50 in assay [1] (setting [6]) came out at 9 nM. The EC50 in assay [2] (setting [7]) amounted to 307 nM.

Take `CC(C)(C)N1CCC(n2cc([C@@H](Nc3cc(Cl)c4ncc(C#N)c(Nc5ccc(F)c(C#N)c5F)c4c3)c3ccccc3)nn2)CC1` [Example 470, (S)-6-(((1-(1-(tert-butyl)piperidin-4-yl)-1H-1,2,3-triazol-4-yl)(phenyl)methyl)amino)-8-chloro-4-((3-cyano-2,4-difluorophenyl)amino) quinoline-3-carbonitrile]: the IC50 in assay [1] (setting [5]) is 13 nM. For the same compound, the 50% effective concentration (EC50) in assay [2] (setting [4]) was determined as 608 nM.

Regarding `[2H][C@](Nc1cc(Cl)c2ncc(C#N)c(N[C@H](CC)c3ccccc3)c2c1)(c1cccc(C#N)c1)c1cn(C(C)(C)C)nn1` [Example 252, 6-(((S)-(1-(tert-butyl)-1H-1,2,3-triazol-4-yl)(3-cyanophenyl)methyl-d)amino)-8-chloro-4-(((R)-1-phenylpropyl)amino)quinoline-3-carbonitrile], the IC50 in assay [1] (setting [3]) amounted to 5 nM. Further, the EC50 in assay [2] (setting [4]) came to 80 nM.

With `[2H][C@](Nc1cc(F)c2ncc(C#N)c(N[C@H](CC)c3ccccc3)c2c1)(c1cccc(C#N)c1)c1cn(C2CC2)nn1` [Example 257, 6-(((S)-(3-cyanophenyl)(1-cyclopropyl-1H-1,2,3-triazol-4-yl)methyl-d)amino)-8-fluoro-4-(((R)-1-phenylpropyl)amino)quinoline-3-carbonitrile], in assay [1] (setting [3]), the IC50 is 3 nM. The EC50 in assay [2] (setting [4]) came to 93 nM.

For `CC(C)(C)CNc1c(C#N)cnc2c(C#N)cc(N[C@@H](c3cccc(C(=O)N4CC(F)C4)c3)c3cn(C4CC4)nn3)cc12` [Compound 58], in assay [1] (setting [3]), the IC50 was found to be 3 nM. Moreover, in assay [2] (setting [4]), the 50% effective concentration (EC50) came to 269 nM.

For the compound `[2H][C@](Nc1cc(Cl)c2ncc(C#N)c(N[C@H](CO)C(C)(C)C)c2c1)(c1ccc(F)cc1)c1cn(C2CC2)nn1` [Example 187, 8-chloro-6-(((S)-(1-cyclopropyl-1H-1,2,3-triazol-4-yl)(4-fluorophenyl)methyl-d)amino)-4-(((S)-1-hydroxy-3,3-dimethylbutan-2-yl)amino)quinoline-3-carbonitrile], in assay [1] (setting [3]), the IC50 came to 85 nM. Besides, the EC50 in assay [2] (setting [4]) was 793 nM.

Consider `CC(C)(C)CNc1c(C#N)cnc2c(C#N)cc(N[C@H](c3cn(C4(C(F)F)CC4)nn3)c3cccc(C#N)c3Cl)cc12` [Example 1080, (S)-6-(((2-chloro-3-cyanophenyl)(1-(1-(difluoromethyl)cyclopropyl)-1H-1,2,3-triazol-4-yl)methyl)amino)-4-(neopentylamino)quinoline-3,8-dicarbonitrile], for which the IC50 in assay [1] (setting [6]) was found to be 7 nM. Moreover, the concentration giving a half-maximal response (EC50) in assay [2] (setting [7]) was determined as 148 nM.

Regarding `CC1(CNc2c(C#N)cnc3c(Cl)cc(N[C@@H](c4ccccc4)c4cn(C5CCN(C(C)(C)C)CC5)nn4)cc23)CCC1` [Example 453, (S)-6-(((1-(1-(tert-butyl)piperidin-4-yl)-1H-1,2,3-triazol-4-yl)(phenyl)methyl)amino)-8-chloro-4-(((1-methylcyclobutyl)methyl)amino)quinoline-3-carbonitrile], the IC50 in assay [1] (setting [5]) was 11 nM. For the same compound, the EC50 in assay [2] (setting [4]) was found to be 231 nM.

On to `[2H][C@](Nc1cc(C#N)c2ncc(C#N)c(NCC(C)(C)C)c2c1)(c1cn(C2(C#N)CC2)nn1)c1ccccc1Cl` [Example 1030, 6-(((2-chlorophenyl)(1-(1-cyanocyclopropyl)-1H-1,2,3-triazol-4-yl)methyl-d)amino)-4-(neopentylamino)quinoline-3,8-dicarbonitrile], for which, in assay [1] (setting [6]), the IC50 is 5 nM. The EC50 in assay [2] (setting [7]) is 82 nM.

As to `Cc1c(Cl)cccc1Nc1c(C#N)cnc2c(Cl)cc(N[C@@H](c3ccc(Cl)cc3)c3cn(C4CCN(C(C)(C)C)CC4)nn3)cc12` [Example 687, (S)-6-(((1-(1-(tert-butyl)piperidin-4-yl)-1H-1,2,3-triazol-4-yl)(4-chlorophenyl)methyl)amino)-8-chloro-4-((3-chloro-2-methylphenyl)amino)quinoline-3-carbonitrile], in assay [1] (setting [5]), the IC50 was determined as 40 nM. Moreover, in assay [2] (setting [4]), the EC50 stood at 2830 nM.
